# Test results taken from patent publication US9675623B2, “Non-surgical method of treatment for cataract” (THE REGENTS OF THE UNIVERSITY OF MICHIGAN, priority 2012, dated 2017).
# Substitutions are numbered along the chain they refer to. Values joined by “and” are separate entries in the source; they are usually repeats but may differ in a detail not shown here. Equal values may be shown once.
# Tests used:
# [1] = system: R120G cryAB knock-in mice; test: Eye drops to live R120G cryAB knock-in mice; slit lens illumination and GPC/light scattering of lens homogenates; assay type: in vivo, mouse; details: 5 mM in saline-cyclodextrin, eye dropper three times a week for two weeks
# R120G cryAB [2] = target: T1, R120G cryAB (Homo sapiens, UniProt P02511, R120G); test: Differential scanning fluorimetry (DSF), shift of apparent Tm; assay type: binding; details: DSF with R120G cryAB; for ACTIVITY (shift in thermal stability at 100 μM): 100 μM compound
# T1 sequence (P02511 1-175 R120G): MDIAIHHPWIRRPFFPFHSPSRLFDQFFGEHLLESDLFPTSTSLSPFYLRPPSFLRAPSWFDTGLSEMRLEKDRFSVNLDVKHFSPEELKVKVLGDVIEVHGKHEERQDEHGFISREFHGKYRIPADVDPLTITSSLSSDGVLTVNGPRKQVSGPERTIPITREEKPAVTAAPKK
# Method: Differential scanning fluorimetry (DSF) was utilized to identify compounds that stabilize cryAB. In DSF experiments, the melting transition (Tm) of the protein target is measured in the presence of potential ligands (Cummings et al., J Biomol Screen 11, 854 (2006). DSF measures thermal unfolding of the target protein via the fluorescence of intrinsic tryptophans, or (more commonly) a dye, such as 1,8-anilinonapthalenesulfonic (bis-ANS) or Sypro Orange. Binding of a ligand adds free energy to the folded state or key intermediates, which limits unfolding and shifts the apparent Tm. These values are used to calculate the unfolding transition. When compounds bind to the target prior to heating, they stabilize against unfolding, shifting the ΔTm. […] (3).
# R120G cryAB [3] = target: T1, R120G cryAB; test: Biolayer interferometry (Octet Red); assay type: binding; details: biotinylated cryAB on streptavidin-coated pins, equilibrium association data
# Method: Measuring affinity for the test protein by biolayer interferometry (Octet Red) allows for the identification of false positives. Briefly, biotinylated cryAB is immobilized to streptavidin-coated pins and equilibrium association data across a hundred-fold concentration range is analyzed to generate the apparent KD. To control for nonspecific binding, the response of a biocytin-blocked pin is subtracted from each sensorgram.
# cryAB = target: T2, cryAB (Mus musculus, UniProt P23927, R120G); test: Excised eyes from R120G cryAB knock-in mice treated with compound; details: 100 μM, versus saline control
# T2 construct: from tissue; host or cells: excised eyes of R120G cryAB knock-in mice
# T2 sequence (P23927 1-175 R120G): T1 sequence (P02511 1-175 R120G) with P39S, S41A, F61I, T170A
# Method: The R120G cryAB knock-in mouse is a clinically-acceptable model of aging-associated and hereditary cataract. The animal model develops severe cataracts within 20 weeks (Andley et al., PLoS One 6, e17671 (2011)). Excised eyes from these mice were treated with 5-cholesten-3b,25-diol (100 μM) or a saline control.
# α-crystallin = test: Gel filtration (GPC) analysis of α-crystallin solubility, treated versus fellow untreated eye; assay type: in vivo, mice
# Method: 5-cholesten-3b,25-diol formulated in a saline-cyclodextrin solution (5 mM cyclodextran; 5 mM 5-cholesten-3b,25-diol) was delivered by eye dropper three times a week for two weeks to live mice (n=15). Gel filtration analysis of α-crystallin solubility was conducted by processing samples as previously described by Andley et al. (PLoS ONE, 6:3, 1-13 (2011)). Briefly, degree of aggregation of α-crystallin was determined using gel permeation chromatography (GPC) with light scattering and refractive index (RI) measurements. All data were analyzed using SAS version 9.3 (SAS Institute; Cary, N.C.). To control for differences in assay sensitivity among animals, the area under the curve for α-crystallin in the drug treated eye was compared to the area under the curve generated from the fellow untreated eye and expressed as “percent” difference in area using the untreated eye as the denominator. The percent difference between treated and untreated eyes was compared using the Wilcoxon signed rank test for the null hypothesis of no difference. The association between age and percent difference was calculated using the Spearman rank correlation coefficient. Non-parametric statistical models were used to protect from departures from normality.
# R120G cryAB [4] = target: T1, R120G cryAB; test: Amyloid formation / aggregation measured by electron microscopy and visual inspection; assay type: biochemical
# Method: To test this idea, R120G cryAB (15 μM) was treated with 5-cholesten-3b,25-diol or cholesterol (100 μM) and its ability to aggregate was measured by electron microscopy.
# R120G cryAB [5] = target: T1, R120G cryAB; test: 15N HSQC NMR binding site mapping; details: 15N HSQC NMR chemical shifts
# [6] = R120G cryAB 15 μM, compound 100 μM
smiles,measurement,setting,value
"C[C@H](CCCC(C)(C)O)[C@H]1CC[C@H]2[C@@H]3CC=C4C[C@@H](O)CC[C@]4(C)[C@H]3CC[C@]12C [5-cholesten-3b,25-diol]",cryAB solubility,[1],significantly improved cryAB solubility
same,lens transparency,[1],improved lens transparency
same,rescued cataract phenotypes (treated mice),[1],10/15
same,ACTIVITY (shift in thermal stability at 100 μM),R120G cryAB [2],−2.0 °C
same,Kd,R120G cryAB [3],10.1 ± 4.4 µM
same,aggregation of cryAB,cryAB,significantly reduced the aggregation of cryAB
same,cryAB solubility,cryAB,improved cryAB solubility
same,"Percent difference in area between untreated and treated eyes, Mean",α-crystallin; Age 66 days,177.2%
same,"Percent difference in area between untreated and treated eyes, Median",α-crystallin; Age 66 days,−20.2%
same,"Percent difference in area between untreated and treated eyes, Mean",α-crystallin; Age 79 days,98.1%
same,"Percent difference in area between untreated and treated eyes, Median",α-crystallin; Age 79 days,98.1%
same,"Percent difference in area between untreated and treated eyes, Mean",α-crystallin; Age 184 days,61.4%
same,"Percent difference in area between untreated and treated eyes, Median",α-crystallin; Age 184 days,61.4%
same,"Percent difference in area between untreated and treated eyes, Mean",α-crystallin; Age 192 days,22.7%
same,"Percent difference in area between untreated and treated eyes, Median",α-crystallin; Age 192 days,55.8%
same,"Percent difference in area between untreated and treated eyes, Mean",α-crystallin; Age 200 days,38.7%
same,"Percent difference in area between untreated and treated eyes, Median",α-crystallin; Age 200 days,31.8%
same,"Percent difference in area between untreated and treated eyes, Mean",α-crystallin; Age 266 days,1376.3%
same,"Percent difference in area between untreated and treated eyes, Median",α-crystallin; Age 266 days,679.0%
same,"Percent difference in area between untreated and treated eyes, Mean",α-crystallin; All ages,381.2±974.6% and 381.2%
same,"Percent difference in area between untreated and treated eyes, Median",α-crystallin; All ages,63.3%
same,"area under the curve of α-crystallin, drug treated eyes versus fellow untreated eyes","α-crystallin; eye drops 5 mM three times a week for two weeks, Wilcoxon signed rank",statistically significantly higher
same,amyloid formation (electron microscopy),R120G cryAB [4]; [6],dramatically suppressed amyloid formation
same,opacity of the R120G cryAB mixture (visual inspection),R120G cryAB [4]; [6],reduced the opacity
same,aggregation of pre-formed R120G cryAB amyloids,R120G cryAB [4]; pre-formed amyloids,reversed the aggregation
same,binding site on R120G cryAB,R120G cryAB [5],binds a groove across the cryAB dimer interface
CC(C)CCC[C@@H](C)[C@H]1CC[C@H]2[C@@H]3CC=C4C[C@@H](O)CC[C@]4(C)[C@H]3CC[C@]12C [5-cholesten-3b-ol],ACTIVITY (shift in thermal stability at 100 μM),R120G cryAB [2],−1.1 °C
"CC(C)CCC[C@@H](C)[C@H]1CC[C@H]2[C@@H]3CC[C@H]4C[C@@H](O)CC[C@]4(C)[C@H]3CC[C@]12C [5a-cholestan-3b-ol-6-one, (2R,5S,7S,15R)-5-hydroxy-2,15-dimethyl-14-(6-methylheptan-2-yl)tetracyclo [8.7.0.0^{2,7}.0^{11,15}] heptadecan-8-one]",ACTIVITY (shift in thermal stability at 100 μM),R120G cryAB [2],−3.0 °C
"CC(C)CCC[C@@H](C)[C@H]1CC[C@H]2[C@@H]3CC=C4C[C@@H](O)CC[C@]4(C)[C@H]3CC[C@]12C [cholesterol, reference compound]",activity in DSF,R120G cryAB [2]; focused sterol collection,inactive
same,amyloid formation (electron microscopy),R120G cryAB [4]; [6],not
C[C@]12CCC(=O)C[C@H]1CC[C@@H]1[C@@H]2CC[C@]2(C)[C@@H](O)CC[C@@H]12 [etiocholan-17b-ol-3-one],ACTIVITY (shift in thermal stability at 100 μM),R120G cryAB [2],+1.7 °C
